The values below come from patent publication US7932384B2, “Reverse-turn mimetics and method relating thereto” (Choongwae Pharma Corporation, priority 2001, dated 2011).

The term solubility denotes the concentration that dissolves in the medium under given conditions. Read a high solubility as a readily soluble substance. A word on the IC50: it is the point on the concentration scale where inhibition reaches its midpoint. As a reminder, the GI50 is the concentration at which growth is held to half of that of the control.

One data set can be described thus: physchem. The conditions noted are these: 37 °C, thermodynamic from solid.
In data set [1] the test system is TCF4/β-catenin transcriptional pathway. Put plainly: Reporter gene assay (TOPFlash luciferase) in SW480 cells. Type of data set: cell-based. The conditions noted are these: Homo sapiens. The protocol:
SW480 cells were transfected with the usage of Superfect™ transfect reagent (Qiagen, 301307). Cells were trypsinized briefly 1 day before transfection and plated on 6 well plate (5×10^5 cells/well) so that they were 50-80% confluent on the day of transfection.
Four microgram (TOPFlash) and one microgram (pRL-null) of DNAs were diluted in 150 μl of serum-free medium, and 30 μl of Superfect™ transfect reagent was added. The DNA-Superfect mixture was incubated at room temperature for 15 min, and then, 1 ml of 10% FBS DMEM was added to this complex for an additional 3 hours of incubation. While complexes were forming, cells were washed with PBS twice without antibiotics.
The DNA-Superfect™ transfect reagent complexes were applied to the cells before incubating at 37° C. at 5% CO2 for 3 hours. After incubation, recovery medium with 10% FBS was added to bring the final volume to 1.18 ml. After 3 hours incubation, the cells were harvested and reseeded to 96 well plate (3×10^4 cells/well). After overnight incubation at 37° C. at 5% CO2, the cells were treated with Compound A for 24 hours. Finally, the activity was checked by means of luciferase assay (Promega, E1960).
(A reporter such as luciferase makes a cellular process visible.)

For a further data set, the system named is HCT116 cells. In words: Growth inhibition assay (MTS or sulforhodamine B), HCT116. The following applies: Homo sapiens, HCT-116, 48 h, Table 5, MTS or sulforhodamine B assay, HCT116, 48 hours. Type of data set: cell-based. (In SRB staining, fixed cells bind dye roughly in proportion to their protein.)
The test system of the next data set is SW480 cells. Put plainly: Growth inhibition assay (MTS or sulforhodamine B), SW480. Type of data set: cell-based. The following applies: Homo sapiens.
The test system of another data set is survivin promoter. In words: Survivin luciferase reporter in SW480 cells. The data set is classed as cell-based. The conditions noted are these: Homo sapiens, SW480, read-out: RGA, Survivin IC50, uM, Table 10, prodrug compounds, reporter gene assay survivin.
A further data set has as its system min mouse. Put plainly: Min mouse model (polyp number). The following applies: for % Inhibition vs. VH: total polyp number. The data set is classed as in vivo. The protocol: Selected compounds of the present invention (Compound B and Compound C) were evaluated in the min mouse model to evaluate their efficacy as anti-cancer agents.
The min mouse model is a widely used model to test for this type of efficacy. The numbers of polyp formed in small intestine and colon of these mice after various treatments were measured (Table 7).

The mark [2] stands for this setting: pH 1.2, simulated gastric fluid, Solubility JP1 (pH 1.2), 0 hr.
Where [3] appears, read: pH 1.2, simulated gastric fluid, Solubility JP1 (pH 1.2), 2 hr.
The mark [4] stands for this setting: pH 1.2, simulated gastric fluid, Solubility JP1 (pH 1.2), 20 hr.
Setting [5] is: pH 6.8, fassgf or other biorelevant, Solubility JP2 (pH 6.8), 0 hr.
The mark [6] stands for this setting: pH 6.8, fassgf or other biorelevant, Solubility JP2 (pH 6.8), 2 hr.
The mark [7] stands for this setting: pH 6.8, fassgf or other biorelevant, Solubility JP2 (pH 6.8), 20 hr.
[8] abbreviates: SW480, Table 4, selected library compounds, Reporter gene assay as described in Example 6, read-out: IC50.
Where [9] appears, read: SW480, 48 h, Table 5, MTS or sulforhodamine B assay, SW480, 48 hours, read-out: Growth Inhibition (GI50, uM) SW480.

In brackets after ≈: the same amount, converted by molar mass. Read-outs that look alike come from different tables or passages of the source. Some results are limits rather than exact numbers.

`CN(C)c1cc(CN2C[C@H]3N(C(=O)CN(C)N3C(=O)NCc3ccccc3)[C@@H](Cc3ccc(OP(=O)([O-])[O-])cc3)C2=O)ccc1Cl.[Na+].[Na+]` [Compound 11]: the solubility in “physchem” (setting [2]) is 2010 µg/mL; in “physchem” (setting [3]) it was 2000 µg/mL; in the data set “physchem” (setting [4]), 2000 µg/mL; in “physchem” (setting [5]), 1640 µg/mL; in “physchem” (setting [6]), 1650 µg/mL; in “physchem” (setting [7]) it was 1650 µg/mL.

On to `C=CCN1CC(=O)N2[C@@H](Cc3ccc(OP(=O)([O-])[O-])cc3)C(=O)N(Cc3cccc4cccnc34)C[C@@H]2N1C(=O)NCc1ccccc1.[Na+].[Na+]` [Compound 6], for which the solubility in the data set “physchem” (setting [2]) is 1450 µg/mL; in the data set “physchem” (setting [3]), 1720 µg/mL; in “physchem” (setting [4]) it was 1790 µg/mL; in “physchem” (setting [5]), 1830 µg/mL; in the data set “physchem” (setting [6]) it was 1860 µg/mL; in the data set “physchem” (setting [7]), 1870 µg/mL.

As to `C=CCN1CC(=O)N2[C@@H](Cc3ccc(OP(=O)(O)O)cc3)C(=O)N(Cc3cccc4c3OCCN4C)C[C@@H]2N1C(=O)NCc1ccccc1` [Compound 169], in data set [1] (setting [8]), the 50% inhibitory concentration (IC50) stood at 1 ± 0.1 µM.

For the molecule `CN1CC(=O)N2[C@@H](Cc3ccc(O)cc3)C(=O)N(Cc3cccc4c3cnn4CCN3CCOCC3)C[C@@H]2N1C(=O)NCc1ccccc1` [Compound 73], the GI50 in the data set on HCT116 cells is 15.8 ± 2.6 µM; in the data set on SW480 cells (setting [9]), 9.2 ± 0.8 µM.

For `CN1CC(=O)N2[C@@H](Cc3ccc(O)cc3)C(=O)N(Cc3cccc4ccccc34)C[C@@H]2N1C(=O)NCc1ccccc1` [Compound 1], the GI50 turned out to be 1.78 µM in the data set with HCT116 cells and 2.28 µM in the data set with SW480 cells (setting [9]).

`CN(C)c1cc(F)c(F)cc1CN1C[C@H]2N(C(=O)CN(C)N2C(=O)NCc2ccccc2)[C@@H](Cc2ccc(OP(=O)([O-])[O-])cc2)C1=O.[Na+].[Na+]` [Compound 10]: the solubility in “physchem” (setting [2]) is 2290 µg/mL; in the data set “physchem” (setting [3]) it was 2270 µg/mL; in the data set “physchem” (setting [4]), 2330 µg/mL; in the data set “physchem” (setting [5]) it was 2030 µg/mL; in the data set “physchem” (setting [6]), 2060 µg/mL; in the data set “physchem” (setting [7]), 2030 µg/mL.

Regarding `C=CCN1CC(=O)N2[C@@H](Cc3ccc(O)cc3)C(=O)N(Cc3ccc(F)cc3F)C[C@@H]2N1C(=O)NCc1ccccc1` [Compound 115], the GI50 was determined as 1.1 ± 0.04 µM with HCT116 cells and 2 ± 0.7 µM in the data set with SW480 cells (setting [9]).

Consider `C=CCN1CC(=O)N2[C@@H](Cc3ccc(OP(=O)([O-])[O-])cc3)C(=O)N(Cc3ccc(Cl)c4cccnc34)C[C@@H]2N1C(=O)NCc1ccccc1.[Na+].[Na+]` [Compound 7], for which the solubility in “physchem” (setting [2]) is 309 µg/mL; in “physchem” (setting [3]), 446 µg/mL; in the data set “physchem” (setting [4]) it was 521 µg/mL; in the data set “physchem” (setting [5]) it was 2140 µg/mL; in “physchem” (setting [6]), 2220 µg/mL; in the data set “physchem” (setting [7]) it was 2240 µg/mL.

For `CN1CC(=O)N2[C@@H](Cc3ccc(O)cc3)CN(Cc3ccc(F)cc3F)C[C@@H]2N1C(=O)NCc1ccccc1` [Compound 77], the GI50 was 10.7 ± 0.8 µM with HCT116 cells and 26.5 ± 6.5 µM with SW480 cells (setting [9]).

Consider `CN1CC(=O)N2[C@@H](Cc3ccc(OP(=O)(O)O)cc3)C(=O)N(Cc3cccc4cnn(C)c34)C[C@@H]2N1C(=O)NCc1ccccc1` [Compound 5], for which the solubility was 406 µg/mL (≈ 627 µM) in the data set “physchem” (setting [2]); 532 µg/mL (≈ 821 µM) in “physchem” (setting [3]); 684 µg/mL (≈ 1060 µM) in the data set “physchem” (setting [4]); 1760 µg/mL (≈ 2720 µM) in “physchem” (setting [5]); 1780 µg/mL (≈ 2750 µM) in “physchem” (setting [6]); 1760 µg/mL (≈ 2710 µM) in the data set “physchem” (setting [7]).

For the molecule `CN1CC(=O)N2[C@@H](Cc3ccc(OP(=O)(O)O)cc3)C(=O)N(Cc3cccc4ccccc34)C[C@@H]2N1C(=O)NCc1ccccc1` [Compound 1], the solubility is 60.1 µg/mL (≈ 93.4 µM) in the data set “physchem” (pH 1.2, simulated gastric fluid, Solubility JP1 (pH 1.2)) and 1800 µg/mL (≈ 2790 µM) in “physchem” (pH 6.8, fassgf or other biorelevant, Solubility JP2 (pH 6.8)). Further, the GI50 in the data set on SW480 cells (SW480, Table 10, prodrug compounds, SW480, read-out: MTS, SW480 (uM) GI50) was determined as 2 µM. The IC50 in data set [1] (SW480, Table 10, prodrug compounds, reporter gene assay TopFlash, read-out: RGA, TopF IC50) came to 4.2 µM; in the data set on survivin promoter, 6.4 µM.

With `CN(C)c1cc(F)ccc1CN1C[C@H]2N(C(=O)CN(C)N2C(=O)NCc2ccccc2)[C@@H](Cc2ccc(OP(=O)(O)O)cc2)C1=O` [Compound 3], the solubility in the data set “physchem” (setting [2]) was 1880 µg/mL (≈ 2870 µM); in the data set “physchem” (setting [3]), 1970 µg/mL (≈ 3010 µM); in the data set “physchem” (setting [4]), 2040 µg/mL (≈ 3110 µM); in “physchem” (setting [5]) it was 1320 µg/mL (≈ 2020 µM); in the data set “physchem” (setting [6]), 1900 µg/mL (≈ 2910 µM); in “physchem” (setting [7]), 2000 µg/mL (≈ 3060 µM).

Regarding `CN1CC(=O)N2[C@@H](Cc3ccc(OP(=O)([O-])[O-])cc3)C(=O)N(Cc3ccc(F)cc3F)C[C@@H]2N1C(=O)NCc1ccccc1.[Na+].[Na+]` [Compound 4], the solubility in “physchem” (setting [2]) was 554 µg/mL; in “physchem” (setting [3]) it was 646 µg/mL; in the data set “physchem” (setting [4]), 756 µg/mL; in the data set “physchem” (setting [5]), 1980 µg/mL; in “physchem” (setting [6]) it was 2010 µg/mL; in the data set “physchem” (setting [7]) it was 2030 µg/mL.

For the molecule `CN1CC(=O)N2[C@@H](Cc3ccc(O)cc3)C(=O)N(Cc3cccc4cccnc34)C[C@@H]2N1C(=O)NCc1ccccc1` [Compound B], in the data set with min mouse (300 mpk), the “Polyp Number (Mean ± S.D.) Colon” value stood at 1.4 ± 0.9, the “Polyp Number (Mean ± S.D.) Small Intestine” value is given as 45.2 ± 22.1, the “Polyp Number (Mean ± S.D.) Total” value worked out at 46.8 ± 17.0 and the “% Inhibition vs. VH” value is 31%.

For the molecule `CCOP(=O)(CC(=O)Nc1ccc(C[C@H]2C(=O)N(Cc3cccc4ccccc34)C[C@H]3N2C(=O)CN(C)N3C(=O)NCc2ccccc2)cc1)OCC` [Compound 59], in the data set on SW480 cells (setting [9]), the GI50 was over 50 µM.

As to `CN1CC(=O)N2[C@@H](Cc3ccc(O)cc3)C(=O)N(Cc3ccc(F)cc3F)C[C@@H]2N1C(=O)NCc1ccccc1` [Compound 13], the GI50 amounted to 1.59 µM in the data set on HCT116 cells and 1.65 µM with SW480 cells (setting [9]).

For `COC(=O)N1C2CN(CCc3ccc(F)cc3)C(=O)C(Cc3cccc4ccccc34)N2C(=O)CN1Cc1ccccc1` (stereo not shown) [Compound 1], the IC50 in data set [1] (setting [8]) amounted to 12.8 µM.

`CN1CC(=O)N2[C@@H](Cc3ccc(OP(=O)([O-])[O-])cc3)C(=O)N(Cc3cccc4cccnc34)C[C@@H]2N1C(=O)NCc1ccccc1.[Na+].[Na+]` [Compound 9]: the solubility in “physchem” (setting [2]) is 2250 µg/mL; in the data set “physchem” (setting [3]), 2280 µg/mL; in “physchem” (setting [4]) it was 2400 µg/mL; in “physchem” (setting [5]) it was 2320 µg/mL; in “physchem” (setting [6]) it was 2350 µg/mL; in the data set “physchem” (setting [7]), 2420 µg/mL.

For `C=CCN1CC(=O)N2[C@@H](Cc3ccc(OP(=O)([O-])[O-])cc3)C(=O)N(Cc3ccc(F)cc3F)C[C@@H]2N1C(=O)NCc1ccccc1.[Na+].[Na+]` [Compound 8], the solubility in “physchem” (setting [2]) is 671 µg/mL; in the data set “physchem” (setting [3]), 775 µg/mL; in “physchem” (setting [4]), 921 µg/mL; in “physchem” (setting [5]), 2300 µg/mL; in the data set “physchem” (setting [6]), 2320 µg/mL; in “physchem” (setting [7]) it was 2270 µg/mL.

On to `CC1=C(CC(=O)O)c2cc(F)ccc2/C1=C\c1ccc([S+](C)[O-])cc1` (stereo not shown) [Sulindac], for which, in the data set with min mouse (160 ppm), the “Polyp Number (Mean ± S.D.) Colon” value came out at 0.5 ± 0.5, the “Polyp Number (Mean ± S.D.) Small Intestine” value came to 48.0 ± 20.7, the “Polyp Number (Mean ± S.D.) Total” value is listed as 48.5 ± 20.9 and the “% Inhibition vs. VH” value stood at 28%.

In the case of `C=CCN1CC(=O)N2[C@@H](Cc3ccc(O)cc3)C(=O)N(Cc3ccc(F)cc3F)[C@@H](C)[C@@H]2N1C(=O)NCc1ccccc1` [Compound 147], the figures for the GI50 in the data set on HCT116 cells and in the data set with SW480 cells (setting [9]) were 5.5 ± 0.4 µM and 6.1 ± 0.4 µM, respectively.
